Drawing on ChEMBL document CHEMBL1629648, “New composite genetic element of the Tn916 family with dual macrolide resistance genes in a Streptococcus pneumoniae isolate belonging to clonal complex 271” (2009), this text covers MIC for 4 compounds.

In brackets after ≈: the same amount, converted by molar mass.

This test concerns Streptococcus pneumoniae. The experiment in a line: Antimicrobial activity against multidrug resistant Streptococcus pneumoniae serotype 19F S43 carring erm(B),mef(E) and tet(M) gene. In kind it is functional.
Take `CN(C)[C@@H]1C(O)=C(C(N)=O)C(=O)[C@@]2(O)C(O)=C3C(=O)c4c(O)cccc4[C@@](C)(O)[C@H]3C[C@@H]12` [TETRACYCLINE]: it took 16 µg/mL (≈ 36 µM) to inhibit growth (MIC).

As for `CCC[C@@H]1C[C@@H](C(=O)N[C@@H]([C@H]2O[C@H](SC)[C@H](O)[C@@H](O)[C@H]2O)[C@H](C)Cl)N(C)C1` [CLINDAMYCIN], the MIC was over 256 µg/mL.

For the compound `CC[C@H]1OC(=O)[C@H](C)[C@@H](O[C@H]2C[C@@](C)(OC)[C@@H](O)[C@H](C)O2)[C@H](C)[C@@H](O[C@@H]2O[C@H](C)C[C@H](N(C)C)[C@H]2O)[C@](C)(O)C[C@@H](C)C(=O)[C@H](C)[C@@H](O)[C@]1(C)O` [ERYTHROMYCIN], the MIC is over 256 µg/mL.

The compound `CC1(C)S[C@@H]2[C@H](NC(=O)Cc3ccccc3)C(=O)N2[C@H]1C(=O)O` [PENICILLIN G] showed an MIC of 4 µg/mL (≈ 12 µM).
